Columns and labels:
[1] = molecular target: T1, HiBit-BRM fusion protein (Homo sapiens, UniProt P51531); test: HiBiT-BRM cell-based degradation assay (Nano-Glo HiBiT Lytic Detection); details: stable HeLa cell line expressing HiBiT-BRM, 24 h incubation; for BRM HiBit Degradation Maximum (%): top dose 30 μM; for DC50: read-out: BRM HiBit Degradation IC50
T1 construct: expressed in transfected cells
Description: (§1) Procedure: A stable HeLa cell line expressing HiBiT-BRM was generated. On day 0, 5000 cells were seeded in 40 μL of media into each well of 384-well cell culture plates. On day 1, cells were treated with 120 nL DMSO or 120 nL of 3-fold serially DMSO-diluted compounds (10 points in duplicate with 30 μM as final top dose). Subsequently plates were incubated for 24 h in a standard tissue culture incubator and equilibrated at room temperature for 15 minutes. Nano-Glo HiBiT Lytic Detection System (Promega N3050) reagent was freshly prepared and 20 ul was added to each well. Upon addition of this LgBit-containing reagent, the HiBiT and LgBiT proteins associate to form the luminescent NanoBiT luciferase. The plates were shaken for 10 minutes at room temperature and the bioluminescence read using an EnVision plate reader (PerkinElmer).
(§2) The degradation % was calculated using the following formula: % degradation=100%−100%×(LumSample−LumLC)/(LumHC−LumLC). DMSO treated cells are employed as High Control (HC) and 2 μM of a known BRM/BRG1 degrader standard treated cells are employed as Low Control (LC).

[2] = molecular target: T2, HiBit-BRG1 fusion protein (Homo sapiens, UniProt P51532); test: HiBiT-BRG1 cell-based degradation assay (Nano-Glo HiBiT Lytic Detection); details: stable HeLa cell line expressing HiBit-BRG1 and LgBit, 24 h incubation; for Dmax: top dose 30 μM, read-out: BRG1 HiBit Degradation Maximum (%); for DC50: read-out: BRMG1 HiBit Degradation IC50
T2 construct: expressed in transfected cells
Description: as §1
For measurement of BRG1 degradation, a stable HeLa cell line expressing HiBit-BRG1 and LgBit was generated. The same protocol as above was then followed.
as §2

T1 sequence (P51531 whole entry, the tested form may be a part): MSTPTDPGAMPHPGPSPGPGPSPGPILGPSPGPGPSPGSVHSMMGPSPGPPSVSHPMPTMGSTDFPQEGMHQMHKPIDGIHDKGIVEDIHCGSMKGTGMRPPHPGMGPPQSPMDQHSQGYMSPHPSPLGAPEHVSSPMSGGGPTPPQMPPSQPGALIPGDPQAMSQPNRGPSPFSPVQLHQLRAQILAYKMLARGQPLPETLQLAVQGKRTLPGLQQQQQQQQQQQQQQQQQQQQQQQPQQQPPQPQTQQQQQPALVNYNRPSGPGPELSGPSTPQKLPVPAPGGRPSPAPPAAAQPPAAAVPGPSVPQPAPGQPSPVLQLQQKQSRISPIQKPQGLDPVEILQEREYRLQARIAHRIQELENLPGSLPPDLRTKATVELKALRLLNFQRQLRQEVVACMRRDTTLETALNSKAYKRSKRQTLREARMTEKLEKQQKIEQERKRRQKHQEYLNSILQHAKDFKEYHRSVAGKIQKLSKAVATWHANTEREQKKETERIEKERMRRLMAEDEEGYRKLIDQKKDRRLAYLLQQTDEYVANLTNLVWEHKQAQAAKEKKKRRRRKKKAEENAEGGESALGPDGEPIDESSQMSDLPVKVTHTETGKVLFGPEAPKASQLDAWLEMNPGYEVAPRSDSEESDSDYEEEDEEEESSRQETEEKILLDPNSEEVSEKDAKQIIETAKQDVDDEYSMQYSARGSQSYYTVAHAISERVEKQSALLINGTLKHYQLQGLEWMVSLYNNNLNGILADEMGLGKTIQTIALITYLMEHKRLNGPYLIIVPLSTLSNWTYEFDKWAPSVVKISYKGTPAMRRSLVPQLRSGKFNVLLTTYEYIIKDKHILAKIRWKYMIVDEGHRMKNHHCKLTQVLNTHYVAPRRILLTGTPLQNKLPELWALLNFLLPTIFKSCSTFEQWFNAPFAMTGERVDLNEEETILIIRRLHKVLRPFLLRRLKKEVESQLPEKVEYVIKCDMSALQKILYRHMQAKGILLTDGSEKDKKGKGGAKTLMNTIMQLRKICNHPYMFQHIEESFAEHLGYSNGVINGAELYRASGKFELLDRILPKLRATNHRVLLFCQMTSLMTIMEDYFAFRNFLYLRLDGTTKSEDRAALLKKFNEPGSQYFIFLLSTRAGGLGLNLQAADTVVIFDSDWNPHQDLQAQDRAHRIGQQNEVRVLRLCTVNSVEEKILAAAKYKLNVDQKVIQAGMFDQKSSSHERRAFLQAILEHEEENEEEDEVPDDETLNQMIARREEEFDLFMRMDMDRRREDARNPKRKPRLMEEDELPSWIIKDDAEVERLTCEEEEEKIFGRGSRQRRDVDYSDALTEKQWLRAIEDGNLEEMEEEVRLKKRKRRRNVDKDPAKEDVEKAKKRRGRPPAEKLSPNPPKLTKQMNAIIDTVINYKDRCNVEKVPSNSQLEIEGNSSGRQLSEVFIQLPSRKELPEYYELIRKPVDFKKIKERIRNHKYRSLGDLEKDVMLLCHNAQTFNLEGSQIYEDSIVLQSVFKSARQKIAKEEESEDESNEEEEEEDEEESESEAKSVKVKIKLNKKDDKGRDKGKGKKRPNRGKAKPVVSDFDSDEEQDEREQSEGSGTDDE
T2 sequence (P51532 whole entry, the tested form may be a part): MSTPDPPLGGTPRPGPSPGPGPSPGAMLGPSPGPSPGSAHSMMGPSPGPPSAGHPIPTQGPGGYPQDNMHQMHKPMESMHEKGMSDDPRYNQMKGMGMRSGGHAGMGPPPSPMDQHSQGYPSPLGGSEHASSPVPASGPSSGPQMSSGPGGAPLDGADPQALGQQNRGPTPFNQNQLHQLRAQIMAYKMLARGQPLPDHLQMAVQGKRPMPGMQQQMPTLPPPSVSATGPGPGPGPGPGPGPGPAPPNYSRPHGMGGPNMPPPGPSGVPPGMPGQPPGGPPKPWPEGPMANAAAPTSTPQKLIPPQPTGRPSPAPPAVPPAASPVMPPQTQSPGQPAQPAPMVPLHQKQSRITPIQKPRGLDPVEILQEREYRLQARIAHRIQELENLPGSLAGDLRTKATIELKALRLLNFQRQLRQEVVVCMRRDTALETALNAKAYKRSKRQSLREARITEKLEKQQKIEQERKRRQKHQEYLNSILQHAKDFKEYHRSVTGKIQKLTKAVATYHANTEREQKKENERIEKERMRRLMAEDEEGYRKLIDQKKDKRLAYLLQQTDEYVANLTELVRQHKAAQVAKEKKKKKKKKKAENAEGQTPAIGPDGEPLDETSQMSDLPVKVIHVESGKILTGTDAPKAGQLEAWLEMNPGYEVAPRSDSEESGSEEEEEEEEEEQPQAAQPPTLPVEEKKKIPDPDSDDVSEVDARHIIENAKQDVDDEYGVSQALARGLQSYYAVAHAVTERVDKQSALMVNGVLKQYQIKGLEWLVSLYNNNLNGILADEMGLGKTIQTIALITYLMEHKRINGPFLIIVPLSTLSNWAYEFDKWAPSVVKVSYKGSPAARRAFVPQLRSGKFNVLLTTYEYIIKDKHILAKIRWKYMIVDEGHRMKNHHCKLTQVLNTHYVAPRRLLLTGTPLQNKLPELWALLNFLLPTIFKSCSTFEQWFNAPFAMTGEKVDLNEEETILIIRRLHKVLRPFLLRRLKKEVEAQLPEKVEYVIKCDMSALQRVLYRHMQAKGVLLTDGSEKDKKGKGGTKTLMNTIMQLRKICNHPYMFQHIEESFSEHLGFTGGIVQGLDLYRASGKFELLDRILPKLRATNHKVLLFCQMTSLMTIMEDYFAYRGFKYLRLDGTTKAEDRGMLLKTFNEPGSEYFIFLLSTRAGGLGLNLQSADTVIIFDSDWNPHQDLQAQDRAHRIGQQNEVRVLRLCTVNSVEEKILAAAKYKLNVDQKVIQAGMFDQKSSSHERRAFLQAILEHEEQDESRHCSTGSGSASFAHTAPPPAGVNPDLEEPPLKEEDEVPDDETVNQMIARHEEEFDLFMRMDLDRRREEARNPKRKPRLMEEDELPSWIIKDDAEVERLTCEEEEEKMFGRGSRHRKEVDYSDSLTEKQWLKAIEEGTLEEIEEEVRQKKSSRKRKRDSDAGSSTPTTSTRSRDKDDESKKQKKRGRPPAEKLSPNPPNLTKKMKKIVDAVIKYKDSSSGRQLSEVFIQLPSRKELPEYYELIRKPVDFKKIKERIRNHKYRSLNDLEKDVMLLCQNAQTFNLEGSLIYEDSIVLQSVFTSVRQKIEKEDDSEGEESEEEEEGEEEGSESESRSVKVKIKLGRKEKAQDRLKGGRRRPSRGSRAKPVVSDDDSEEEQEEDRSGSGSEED

DC50 [1]	Dmax [2]	DC50 [2]	Structure (SMILES)	BRM HiBit Degradation Maximum (%) [1]
≥ 100 nM	< 50%	≥ 1000 nM	Cc1ncsc1-c1ccc([C@H](C)NC(=O)[C@@H]2C[C@@H](O)CN2C(=O)[C@@H](c2cc(C3CCN(C(=O)[C@H]4CCc5sc6nnc(-c7ccccc7O)cc6c5C4)CC3)no2)C(C)C)cc1 [Compound 47, (2S,4R)-4-hydroxy-1-((R)-2-(3-(1-((S)-3-(2-hydroxyphenyl)-5,6,7,8-tetrahydrobenzo[4,5]thieno[2,3-c]pyridazine-6-carbonyl)piperidin-4-yl)isoxazol-5-yl)-3-methylbutanoyl)-N-((S)-1-(4-(4-methylthiazol-5-yl)phenyl)ethyl)pyrrolidine-2-carboxamide]	A (“A” indicates maximum degradation ≥ 75%)
≥ 1000 nM	< 50%	≥ 1000 nM	Cc1ncsc1-c1ccc(CNC(=O)[C@@H]2C[C@@H](O)CN2C(=O)[C@@H](NC(=O)C2(F)CC2)C(C)(C)C)c(OCC(=O)N2CCC(c3cc4nnc(-c5ccccc5O)cc4s3)CC2)c1 [Compound 75, (2S,4R)-1-((S)-2-(1-fluorocyclopropane-1-carboxamido)-3,3-dimethylbutanoyl)-4-hydroxy-N-(2-(2-(4-(3-(2-hydroxyphenyl)thieno[3,2-c]pyridazin-6-yl)piperidin-1-yl)-2-oxoethoxy)-4-(4-methylthiazol-5-yl)benzyl)pyrrolidine-2-carboxamide]	C (“C” indicates maximum degradation < 50%)
≥ 10 nM	< 50%	≥ 1000 nM	Cc1ncsc1-c1ccc([C@H](C)NC(=O)[C@@H]2C[C@@H](O)CN2C(=O)[C@@H](NC(=O)c2cnc(N3CCC(c4sc5nnc(-c6ccccc6O)cc5c4C)CC3)nc2)C(C)(C)C)cc1 [Compound 65, N-((S)-1-((2S,4R)-4-hydroxy-2-(((S)-1-(4-(4-methylthiazol-5-yl)phenyl)ethyl)carbamoyl)pyrrolidin-1-yl)-3,3-dimethyl-1-oxobutan-2-yl)-2-(4-(3-(2-hydroxyphenyl)-5-methylthieno[2,3-c]pyridazin-6-yl)piperidin-1-yl)pyrimidine-5-carboxamide]	A (“A” indicates maximum degradation ≥ 75%)
≥ 100 nM	< 50%	≥ 1000 nM	Cc1ncsc1-c1ccc([C@H](C)NC(=O)[C@@H]2C[C@@H](O)CN2C(=O)[C@@H](c2cc(N3CCN(CC(=O)N4CC(c5cc6cc(-c7ccccc7O)nnc6s5)C4)CC3)no2)C(C)C)cc1 [Compound 6, (2S,4R)-4-hydroxy-1-[(2R)-2-{3-[4-(2-{3-[3-(2-hydroxyphenyl)thieno[2,3-c]pyridazin-6-yl]azetidin-1-yl}-2-oxoethyl)piperazin-1-yl]-1,2-oxazol-5-yl}-3-methylbutanoyl]-N-[(1S)-1-[4-(4-methyl-1,3-thiazol-5-yl)phenyl]ethyl]pyrrolidine-2-carboxamide]	B (“B” indicates maximum degradation ≥ 50%)
≥ 10 nM	< 50%	≥ 1000 nM	Cc1ncsc1-c1ccc([C@H](C)NC(=O)[C@@H]2C[C@@H](O)CN2C(=O)[C@@H](c2cc(OCCN3CCC(N4CCC(c5sc6nnc(-c7ccccc7O)cc6c5C)CC4)CC3)no2)C(C)C)cc1 [Compound 107, (2S,4R)-4-hydroxy-1-((R)-2-(3-(2-(4-(3-(2-hydroxyphenyl)-5-methylthieno[2,3-c]pyridazin-6-yl)-[1,4′-bipiperidin]-1′-yl)ethoxy)isoxazol-5-yl)-3-methylbutanoyl)-N-((S)-1-(4-(4-methylthiazol-5-yl)phenyl)ethyl)pyrrolidine-2-carboxamide]	A (“A” indicates maximum degradation ≥ 75%)
< 10 nM	< 50%	≥ 1000 nM	Cc1ncsc1-c1ccc([C@H](C)NC(=O)[C@@H]2C[C@@H](O)CN2C(=O)[C@@H](c2cc(N3CCC(N4CC(c5cc6nnc(-c7ccccc7O)cc6s5)C4)CC3)no2)C(C)C)cc1 [Compound 105, (2S,4R)-4-hydroxy-1-((R)-2-(3-(4-(3-(3-(2-hydroxyphenyl)thieno[3,2-c]pyridazin-6-yl)azetidin-1-yl)piperidin-1-yl)isoxazol-5-yl)-3-methylbutanoyl)-N-((S)-1-(4-(4-methylthiazol-5-yl)phenyl)ethyl)pyrrolidine-2-carboxamide]	A (“A” indicates maximum degradation ≥ 75%)
≥ 10 nM	< 50%	≥ 1000 nM	Cc1ncsc1-c1ccc([C@H](C)NC(=O)[C@@H]2C[C@@H](O)CN2C(=O)[C@@H](c2cc(N3CCC(C(=O)N4CC(c5cc6nnc(-c7ccccc7O)cc6s5)C4)CC3)no2)C(C)C)cc1 [Compound 99, (2S,4R)-4-hydroxy-1-((R)-2-(3-(4-(3-(3-(2-hydroxyphenyl)thieno[3,2-c]pyridazin-6-yl)azetidine-1-carbonyl)piperidin-1-yl)isoxazol-5-yl)-3-methylbutanoyl)-N-((S)-1-(4-(4-methylthiazol-5-yl)phenyl)ethyl)pyrrolidine-2-carboxamide]	A (“A” indicates maximum degradation ≥ 75%)
< 10 nM	≥ 75%	< 10 nM	Cc1ncsc1-c1ccc([C@H](C)NC(=O)[C@@H]2C[C@@H](O)CN2C(=O)[C@@H](c2cc(C34CC(C(=O)N5CCC(c6sc7nnc(-c8ccccc8O)cc7c6C)CC5)(C3)C4)no2)C(C)C)cc1 [Compound 64, (2S,4R)-4-hydroxy-1-((R)-2-(3-(3-(4-(3-(2-hydroxyphenyl)-5-methylthieno[2,3-c]pyridazin-6-yl)piperidine-1-carbonyl)bicyclo[1.1.1]pentan-1-yl)isoxazol-5-yl)-3-methylbutanoyl)-N-((S)-1-(4-(4-methylthiazol-5-yl)phenyl)ethyl)pyrrolidine-2-carboxamide]	A (“A” indicates maximum degradation ≥ 75%)
< 10 nM	< 50%	≥ 1000 nM	Cc1ncsc1-c1ccc([C@H](C)NC(=O)[C@@H]2C[C@@H](O)CN2C(=O)[C@@H](c2cc(OCCCN3CCC(c4sc5nnc(-c6ccccc6O)cc5c4C)CC3)no2)C(C)C)cc1 [Compound 95, (2S,4R)-4-hydroxy-1-((R)-2-(3-(3-(4-(3-(2-hydroxyphenyl)-5-methylthieno[2,3-c]pyridazin-6-yl)piperidin-1-yl)propoxy)isoxazol-5-yl)-3-methylbutanoyl)-N-((S)-1-(4-(4-methylthiazol-5-yl)phenyl)ethyl)pyrrolidine-2-carboxamide]	A (“A” indicates maximum degradation ≥ 75%)
≥ 10 nM	< 50%	≥ 1000 nM	Cc1ncsc1-c1ccc([C@H](C)NC(=O)[C@@H]2C[C@@H](O)CN2C(=O)[C@@H](c2cc(OCCN3CCC(c4sc5nnc(-c6ccccc6O)cc5c4Cl)CC3)no2)C(C)C)cc1 [Compound 90, (2S,4R)-1-((R)-2-(3-(2-(4-(5-chloro-3-(2-hydroxyphenyl)thieno[2,3-c]pyridazin-6-yl)piperidin-1-yl)ethoxy)isoxazol-5-yl)-3-methylbutanoyl)-4-hydroxy-N-((S)-1-(4-(4-methylthiazol-5-yl)phenyl)ethyl)pyrrolidine-2-carboxamide]	A (“A” indicates maximum degradation ≥ 75%)
≥ 1000 nM	< 50%	≥ 1000 nM	Cc1ncsc1-c1ccc([C@H](C)NC(=O)[C@@H]2C[C@@H](O)CN2C(=O)[C@@H](c2cc(OCCN[C@H]3CCc4sc5nnc(-c6ccccc6O)cc5c4C3)no2)C(C)C)cc1 [Compound 39, (2S,4R)-4-hydroxy-1-((R)-2-(3-(2-(((S)-3-(2-hydroxyphenyl)-5,6,7,8-tetrahydrobenzo[4,5]thieno[2,3-c]pyridazin-6-yl)amino)ethoxy)isoxazol-5-yl)-3-methylbutanoyl)-N—((S)-1-(4-(4-methylthiazol-5-yl)phenyl)ethyl)pyrrolidine-2-carboxamide]	C (“C” indicates maximum degradation < 50%)

Structure (SMILES)	DC50 [1]	Dmax [2]	DC50 [2]	BRM HiBit Degradation Maximum (%) [1]
Cc1ncsc1-c1ccc([C@H](C)NC(=O)[C@@H]2C[C@@H](O)CN2C(=O)[C@@H](c2cc(OCCN3CCC(O)(c4cc5nnc(-c6ccccc6O)cc5s4)CC3)no2)C(C)C)cc1 [Compound 73, (2S,4R)-4-hydroxy-1-((R)-2-(3-(2-(4-hydroxy-4-(3-(2-hydroxyphenyl)thieno[3,2-c]pyridazin-6-yl)piperidin-1-yl)ethoxy)isoxazol-5-yl)-3-methylbutanoyl)-N-((S)-1-(4-(4-methylthiazol-5-yl)phenyl)ethyl)pyrrolidine-2-carboxamide]	≥ 10 nM	< 50%	≥ 1000 nM	A (“A” indicates maximum degradation ≥ 75%)
